Source: PMC6001238, “Iterative Chemical Engineering of Vancomycin Leads to Novel Vancomycin Analogs With a High in Vitro Therapeutic Index” (Frontiers in Microbiology, 2018)
In brackets after ≈: the same amount, converted by molar mass. Read-outs that look alike come from different tables or passages of the source.

Key:
B. subtilis PSB3 = assay: MIC, broth microdilution, B. subtilis PSB3; assay type: cell-based, Bacillus subtilis; conditions: for MICvanc/MICi: ratio of MIC of vancomycin and MIC of analogue
Protocol: (§1) The minimum inhibitory concentration (MIC) was determined using the broth microdilution method according to the antimicrobial susceptibility testing standards of the clinical and laboratory standards institute ([Clinical and Laboratory Standards Institute [CLSI], 2012]). Ultrapure water and non-inoculated broth were used as controls. In one case, a final concentration of 10 μM vancomycin was included with the vancomycin analog or control antibiotic.

E. coli XL-1 blue MRF' = assay: MIC, broth microdilution, E. coli XL-1 blue MRF'; assay type: cell-based, Escherichia coli; conditions: E. coli XL-1 blue MRF'; for MICvanc/MICi: ratio of MIC of vancomycin and MIC of analogue
Protocol: as §1

E. faecalis VSE 1 = assay: MIC, broth microdilution, vancomycin-sensitive E. faecalis (VSE 1); assay type: cell-based, Enterococcus faecalis; conditions: for MICvanc/MICi / MIC-fold improvement vs. vancomycin: ratio of MIC of vancomycin and MIC of analogue; for MIC: read-out: MIC; for MIC-fold improvement vs. vancomycin: VSE 1
Outline: (§2)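 Susceptibility was scored by broth microdilution (CLSI). In one instance each vancomycin analog or control antibiotic was tested in the presence of vancomycin, 10 μM final, and ultrapure water plus non-inoculated broth were included as controls.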

E. faecalis VRE 6 = assay: MIC, broth microdilution, vancomycin-resistant E. faecalis VRE 6 (VanA); assay type: cell-based, Enterococcus faecalis; conditions: for MIC: read-out: MIC
Outline: as §2

E. faecalis VRE 53 = assay: MIC, broth microdilution, vancomycin-resistant E. faecalis VRE 53 (VanA); assay type: cell-based, Enterococcus faecalis; conditions: for MICvanc/MICi / MIC-fold improvement vs. vancomycin: ratio of MIC of vancomycin and MIC of analogue; for MIC: read-out: MIC; for MIC-fold improvement vs. vancomycin: VRE 53
Outline: as §2

E. faecalis VRE 29 = assay: MIC, broth microdilution, vancomycin-resistant E. faecalis VRE 29 (VanA); assay type: cell-based, Enterococcus faecalis; conditions: for MIC: Enterococcus faecalis VRE 29 (vancomycin-resistant), read-out: MIC; for MIC-fold improvement vs. vancomycin: VRE 29, ratio of MIC of vancomycin and MIC of analogue
Outline: as §2

E. faecalis VRE 37 = assay: MIC, broth microdilution, vancomycin-resistant E. faecalis VRE 37 (VanA); assay type: cell-based, Enterococcus faecalis; conditions: for MIC: Enterococcus faecalis VRE 37 (vancomycin-resistant), read-out: MIC; for MIC-fold improvement vs. vancomycin: VRE 37, ratio of MIC of vancomycin and MIC of analogue
Outline: as §2

[1] = test system: Murine leukemia (L1210) cells; assay: Cytostatic activity, L1210 cell proliferation; assay type: cell-based; conditions: mean ± SD of three experiments; highest concentration tested 250 µM; 2 days; read-out: Toxicity (IC50) L1210
Outline: (§3)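 Suspensions (300,000–500,000 cells/mL) combined with equal volumes of diluted compound; 37°C; L1210 2 d / CEM 3 d / HeLa 4 d; counted by Coulter counter; IC50 vs untreated wells.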

[2] = test system: human T-lymphocyte (CEM) cells; assay: Cytostatic activity, CEM cell proliferation; assay type: cell-based; conditions: mean ± SD of three experiments; highest concentration tested 250 µM; 3 days; read-out: Toxicity (IC50) CEM
Outline: as §3

[3] = test system: human cervix carcinoma (HeLa) cells; assay: Cytostatic activity, HeLa cell proliferation; assay type: cell-based; conditions: mean ± SD of three experiments; highest concentration tested 250 µM; 4 days; read-out: Toxicity (IC50) HeLa
Outline: as §3

[4] = test system: L1210, CEM and HeLa cell lines; assay: Cytostatic activity, average or summary over L1210, CEM and HeLa; assay type: cell-based
Outline: as §3

[5] = test system: S. aureus VSSA (ATCC 6538); assay: MIC, broth microdilution, vancomycin-sensitive S. aureus (VSSA/MSSA, ATCC 6538); assay type: cell-based, Staphylococcus aureus; conditions: for MIC: Staphylococcus aureus VSSA, read-out: MIC; for MIC-fold improvement vs. vancomycin: VSSA, ratio of MIC of vancomycin and MIC of analogue
Outline: as §2

S. aureus VISA/HIP5827 = assay: MIC, broth microdilution, vancomycin-intermediate S. aureus VISA HIP5827; assay type: cell-based, Staphylococcus aureus; conditions: for MIC: Staphylococcus aureus VISA/HIP5827, read-out: MIC; for MIC-fold improvement vs. vancomycin: VISA/HIP5827, ratio of MIC of vancomycin and MIC of analogue
Outline: as §2

S. aureus VRSA = assay: MIC, broth microdilution, vancomycin-resistant S. aureus (VRSA); assay type: cell-based, Staphylococcus aureus; conditions: for MIC: Staphylococcus aureus VRSA, read-out: MIC; for MIC-fold improvement vs. vancomycin: VRSA, ratio of MIC of vancomycin and MIC of analogue
Outline: as §2

MRSA KS2 = assay: MIC, broth microdilution, MRSA KS2; assay type: cell-based, Staphylococcus aureus; conditions: for MIC-fold improvement vs. vancomycin: MRSA KS2, ratio of MIC of vancomycin and MIC of analogue; for MIC: Staphylococcus aureus MRSA KS2, read-out: MIC
Outline: as §2

MRSA KS6 = assay: MIC, broth microdilution, MRSA KS6; assay type: cell-based, Staphylococcus aureus; conditions: for MIC-fold improvement vs. vancomycin: MRSA KS6, ratio of MIC of vancomycin and MIC of analogue; for MIC: Staphylococcus aureus MRSA KS6, read-out: MIC
Outline: as §2

MRSA KS89 = assay: MIC, broth microdilution, MRSA KS89; assay type: cell-based, Staphylococcus aureus; conditions: for MIC-fold improvement vs. vancomycin: MRSA KS8, ratio of MIC of vancomycin and MIC of analogue; for MIC: Staphylococcus aureus MRSA KS8, read-out: MIC
Outline: as §2

MRSA KS1 = assay: MIC, broth microdilution, MRSA KS1; assay type: cell-based, Staphylococcus aureus; conditions: for MIC-fold improvement vs. vancomycin: MRSA KS1, ratio of MIC of vancomycin and MIC of analogue; for MIC: Staphylococcus aureus MRSA KS1, read-out: MIC
Outline: as §2

[6] = Enterococcus faecalis VSE 1 (vancomycin-sensitive)
[7] = E. faecalis VRE 6, ratio of MIC of vancomycin and MIC of analogue
[8] = Enterococcus faecalis VRE 6 (vancomycin-resistant)
[9] = Enterococcus faecalis VRE 53 (vancomycin-resistant)
[10] = average of L1210, CEM and HeLa, read-out: Toxicity (IC50) Average

C#Cc1ccc(/C=C/C(=O)NCCNC(=O)[C@H]2NC(=O)[C@H]3NC(=O)[C@H](NC(=O)[C@@H]4NC(=O)[C@H](CC(N)=O)NC(=O)[C@H](NC(=O)[C@@H](CC(C)C)NC)[C@H](O)c5ccc(c(Cl)c5)Oc5cc4cc(c5O[C@@H]4O[C@H](CO)[C@@H](O)[C@H](O)[C@H]4O[C@H]4C[C@](C)(N)[C@H](O)[C@H](C)O4)Oc4ccc(cc4Cl)[C@H]3O)c3ccc(O)c(c3)-c3c(O)cc(O)cc32)cc1 [Vanc-Q]
MIC (B. subtilis PSB3): 0.39 µM (≈ 0.642 µg/mL) | MICvanc/MICi (B. subtilis PSB3): 1 | MIC (E. coli XL-1 blue MRF'): 12.5 µM (≈ 20.6 µg/mL) | MICvanc/MICi (E. coli XL-1 blue MRF'): 8 | MICvanc/MICi (E. faecalis VSE 1; E. faecalis VSE 1): 16 | MIC (E. faecalis VSE 1; E. faecalis VSE 1): 0.10 µM (≈ 0.165 µg/mL) | MIC (E. faecalis VSE 1; [6]): 0.10 µM (≈ 0.165 µg/mL) | MIC-fold improvement vs. vancomycin (E. faecalis VSE 1): 16 | MICvanc/MICi (E. faecalis VRE 6; [7]): 32 | MIC (E. faecalis VRE 6; E. faecalis VRE 6): 6.25 µM (≈ 10.3 µg/mL) | MIC (E. faecalis VRE 6; [8]): 6.25 µM (≈ 10.3 µg/mL) | MIC-fold improvement vs. vancomycin (E. faecalis VRE 6; VRE 6, ratio of MIC of vancomycin and MIC of analogue): 32 | MICvanc/MICi (E. faecalis VRE 53; E. faecalis VRE 53): 64 | MIC (E. faecalis VRE 53; E. faecalis VRE 53): 6.25 µM (≈ 10.3 µg/mL) | MIC (E. faecalis VRE 53; [9]): 6.25 µM (≈ 10.3 µg/mL) | MIC-fold improvement vs. vancomycin (E. faecalis VRE 53): 64 | MIC (E. faecalis VRE 29): 25 µM (≈ 41.1 µg/mL) | MIC-fold improvement vs. vancomycin (E. faecalis VRE 29): 16 | MIC (E. faecalis VRE 37): 50 µM (≈ 82.3 µg/mL) | MIC-fold improvement vs. vancomycin (E. faecalis VRE 37): 16 | IC50 [1]: > 250 µM | IC50 [2]: > 250 µM | IC50 [3]: > 250 µM | IC50 [4, 10]: > 250 µM | IC50 ([4]; summary over the three cell lines, read-out: IC50 (L1210, CEM, HeLa), depending on the cell line used): > 250 µM | MIC [5]: 0.20 µM (≈ 0.329 µg/mL) | MIC-fold improvement vs. vancomycin [5]: 4 | MIC (S. aureus VISA/HIP5827): 1.56 µM (≈ 2.57 µg/mL) | MIC-fold improvement vs. vancomycin (S. aureus VISA/HIP5827): 4 | MIC (S. aureus VRSA): 12.5 µM (≈ 20.6 µg/mL) | MIC-fold improvement vs. vancomycin (S. aureus VRSA): 8 | MIC-fold improvement vs. vancomycin (MRSA KS2): 0.5 | MIC (MRSA KS2): 1.56 µM (≈ 2.57 µg/mL) | MIC-fold improvement vs. vancomycin (MRSA KS6): 1 | MIC (MRSA KS6): 0.78 µM (≈ 1.28 µg/mL) | MIC-fold improvement vs. vancomycin (MRSA KS89): 1 | MIC (MRSA KS89): 0.78 µM (≈ 1.28 µg/mL) | MIC-fold improvement vs. vancomycin (MRSA KS1): 2 | MIC (MRSA KS1): 0.39 µM (≈ 0.642 µg/mL)

C#Cc1ccc(C=Cc2ccc(NC(=O)CNC(=O)C3NC(=O)C4NC(=O)C(NC(=O)C5NC(=O)C(CC(N)=O)NC(=O)C(NC(=O)C(CC(C)C)NC)C(O)c6ccc(c(Cl)c6)Oc6cc5cc(c6OC5OC(CO)C(O)C(O)C5OC5CC(C)(N)C(O)C(C)O5)Oc5ccc(cc5Cl)C4O)c4ccc(O)c(c4)-c4c(O)cc(O)cc43)cc2)cc1 (stereo not shown) [Vanc-R]
MIC (B. subtilis PSB3): 0.78 µM (≈ 1.33 µg/mL) | MICvanc/MICi (B. subtilis PSB3): 0.5 | MIC (E. coli XL-1 blue MRF'): 100 µM (≈ 171 µg/mL) | MICvanc/MICi (E. coli XL-1 blue MRF'): 1 | MICvanc/MICi (E. faecalis VSE 1; E. faecalis VSE 1): 8 | MIC (E. faecalis VSE 1; E. faecalis VSE 1): 0.20 µM (≈ 0.342 µg/mL) | MIC (E. faecalis VSE 1; [6]): 0.19 µM (≈ 0.324 µg/mL) | MIC-fold improvement vs. vancomycin (E. faecalis VSE 1): 8 | MICvanc/MICi (E. faecalis VRE 6; [7]): 64 | MIC (E. faecalis VRE 6; E. faecalis VRE 6): 3.13 µM (≈ 5.34 µg/mL) | MIC (E. faecalis VRE 6; [8]): 3.13 µM (≈ 5.34 µg/mL) | MICvanc/MICi (E. faecalis VRE 53; E. faecalis VRE 53): 64 | MIC (E. faecalis VRE 53; E. faecalis VRE 53): 6.25 µM (≈ 10.7 µg/mL) | MIC (E. faecalis VRE 53; [9]): 6.25 µM (≈ 10.7 µg/mL) | MIC-fold improvement vs. vancomycin (E. faecalis VRE 53): 64 | MIC (E. faecalis VRE 29): 1.56 µM (≈ 2.66 µg/mL) | MIC-fold improvement vs. vancomycin (E. faecalis VRE 29): 256 | MIC (E. faecalis VRE 37): 12.5 µM (≈ 21.3 µg/mL) | MIC-fold improvement vs. vancomycin (E. faecalis VRE 37): 64 | IC50 [1]: 5.7 ± 0.7 µM | IC50 [2]: 1.4 ± 0.6 µM | IC50 [3]: 15 ± 1 µM | IC50 [4, 10]: 7 µM | MIC [5]: 0.10 µM (≈ 0.171 µg/mL) | MIC-fold improvement vs. vancomycin [5]: 8 | MIC (S. aureus VISA/HIP5827): 0.78 µM (≈ 1.33 µg/mL) | MIC-fold improvement vs. vancomycin (S. aureus VISA/HIP5827): 8 | MIC (S. aureus VRSA): 1.56 µM (≈ 2.66 µg/mL) | MIC-fold improvement vs. vancomycin (S. aureus VRSA): 64 | MIC-fold improvement vs. vancomycin (MRSA KS2): 2 | MIC (MRSA KS2): 0.39 µM (≈ 0.666 µg/mL) | MIC-fold improvement vs. vancomycin (MRSA KS6): 2 | MIC (MRSA KS6): 0.39 µM (≈ 0.666 µg/mL) | MIC-fold improvement vs. vancomycin (MRSA KS89): 2 | MIC (MRSA KS89): 0.39 µM (≈ 0.666 µg/mL) | MIC-fold improvement vs. vancomycin (MRSA KS1): 1 | MIC (MRSA KS1): 0.78 µM (≈ 1.33 µg/mL)
